From article PMC5464911, “SEL120-34A is a novel CDK8 inhibitor active in AML cells with high levels of serine phosphorylation of STAT1 and STAT5 transactivation domains” (Oncotarget, 2017)
One block for each compound: values may come before it.

Columns and labels:
[1] = tested on: STAT5 S726 and Y694; test: STAT phosphorylation in SET-2 cells (JAK2 V617F), WB; type: cell-based; conditions: 24 hours
Method: (B) SEL120-34A inhibits IFN-dependent phosphorylation of STAT1 S727. HCT-116 cells stimulated with IFNg for 4 h were treated with increasing doses of SEL120-34A, Flavopiridol (F) or vehicle DMSO (C) to determine changes in the phosphorylation of STAT1 S727 and Y701, as measured by WB. (*) unspecific band. (C) SEL120-34A inhibits serine phosphorylation of STAT1 S727 and STAT5 S726, whereas Ruxolitinib inhibits tyrosine phosphorylation of STAT1 Y701 and STAT5 Y694 in JAK2 V617F cells. SET-2 cells were treated with Ruxolitinib, SEL120-34A or vehicle DMSO (C) for 24 hours and protein levels of pS727, pY701 STAT1 and pS726, pY694 STAT5 were measured by WB. […]
0,1% SDS; 20 mM β-glicerol phosphate; 5 mM NaF; cat. # sc835), α-STAT5-pS726 (1:1000; Abcam, cat. # 1 mM Na3VO4) supplemented with protease inhibitors ab128896), α-STAT5-pY694 (1:1000; Cell Signaling, (Santa Cruz Biotechnology). […] Protein concentration in lysates (1:20000; Sigma, cat. # G9545) was measured by the Bradford assay and adjusted to achieve the same final concentration in each well (20-30 mRNA extraction from xenograft tissue μg protein/well). […] Prior to microarray analyses, the quality of the incubation with secondary donkey anti-rabbit antibodies RNA samples was determined using an Agilent 2100 conjugated to HRP, used at 1:4000 (Cell Signaling, Bioanalyzer (Agilent Technologies, CA, USA). […]

[2] = tested on: ME-1; test: Extended viability test (AlamarBlue); type: cell-based; conditions: extended viability assay
[3] = tested on: MOLM16; test: Extended viability test (AlamarBlue); type: cell-based; conditions: extended viability assay
[4] = tested on: GDM-1; test: Extended viability test (AlamarBlue); type: cell-based; conditions: Homo sapiens, extended viability assay
[5] = tested on: KG-1; test: Extended viability test (AlamarBlue); type: cell-based; conditions: Homo sapiens, extended viability assay
[6] = tested on: EOL-1; test: Extended viability test (AlamarBlue); type: cell-based; conditions: Homo sapiens, EOL1; extended viability assay
[7] = tested on: Oci-AML5; test: Extended viability test (AlamarBlue); type: cell-based; conditions: Homo sapiens, OCI-AML-5; extended viability assay
[8] = tested on: MV4-11; test: Extended viability test (AlamarBlue); type: cell-based; conditions: Homo sapiens, extended viability assay
[9] = tested on: Oci-AML3; test: Extended viability test (AlamarBlue); type: cell-based; conditions: Homo sapiens, OCI-AML-3; extended viability assay
[10] = tested on: Kasumi-1; test: Extended viability test (AlamarBlue); type: cell-based; conditions: Homo sapiens, extended viability assay
[11] = tested on: MOLM13; test: Extended viability test (AlamarBlue); type: cell-based; conditions: Homo sapiens, MOLM-13; extended viability assay
[12] = tested on: PL-21; test: Extended viability test (AlamarBlue); type: cell-based; conditions: extended viability assay
[13] = tested on: SIG-M5; test: Extended viability test (AlamarBlue); type: cell-based; conditions: Homo sapiens, extended viability assay
[14] = tested on: SKM-1; test: Extended viability test (AlamarBlue); type: cell-based; conditions: Homo sapiens, extended viability assay
[15] = tested on: AML cell lines; test: Broad profiling in a panel of AML cell lines (extended viability tests); type: cell-based; conditions: SKNO-1, KG-1, HEL-60, MOLM-16, MV-4-11, OciAML-2, MOLM-6 and OciAML-3; read-out: GI50 in sensitive responder cell lines
Method: Mean GI50 (day 10) is shown and plotted on the graph (n=3). (D) Levels of phosphorylated STAT5 S726 and […] in AML cells from the panel C were measured by WB. Densitometry for STAT5 S726 and […] signals is shown and plotted on the graph. Cell lines from the panel D were divided into two classes based on the sensitivity to CDK8 inhibitors treatment (responders GI50<1 μM and non-responder GI50>1 μM), mean levels of STAT5 S726 (E) or STAT1 S727 (F) in selected cell lines measured by densitometry were presented on scatter plots. Differences between responder and non-responder were assessed by t-tests (p value is shown).
Cells grown in suspension were plated onto 96-well culture dishes in triplicate at 20000 cells per well in 200 μl of their culture medium, except Kasumi-1 cells, which were plated at 60 000/well. Cells were incubated in the presence of vehicle, 1 μM docetaxel (positive control, Santa Cruz Biotechnology) or 6 serially - diluted concentrations of tested compound. The compound effect was determined by AlamarBlue measurement. On days 3, 6-7 and 10, an equal volume from all wells was also split-back with fresh media supplemented with tested compound, resulting in a cell density for the vehicle well that matched the initial seeding density. […]

[16] = molecular target: CDK8/CycC (Homo sapiens, UniProt P49336); test: Radiometric protein kinase assay (PanQinase, ProQinase)
Sequence of CDK8/CycC (P49336 whole entry): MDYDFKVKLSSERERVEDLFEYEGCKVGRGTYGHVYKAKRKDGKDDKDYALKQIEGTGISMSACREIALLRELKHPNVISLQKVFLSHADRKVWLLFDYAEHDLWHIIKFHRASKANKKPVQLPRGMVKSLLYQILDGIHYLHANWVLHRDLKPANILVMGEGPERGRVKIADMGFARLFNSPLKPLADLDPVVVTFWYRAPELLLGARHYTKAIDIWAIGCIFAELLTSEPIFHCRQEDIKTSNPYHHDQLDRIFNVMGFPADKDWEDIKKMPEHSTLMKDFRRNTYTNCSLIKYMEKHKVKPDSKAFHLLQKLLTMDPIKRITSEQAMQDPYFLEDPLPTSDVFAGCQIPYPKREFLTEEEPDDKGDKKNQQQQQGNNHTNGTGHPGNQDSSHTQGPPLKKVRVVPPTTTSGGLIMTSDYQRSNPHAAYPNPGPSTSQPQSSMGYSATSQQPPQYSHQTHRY
Sequence of CDK8/CycC (P24863 whole entry partner): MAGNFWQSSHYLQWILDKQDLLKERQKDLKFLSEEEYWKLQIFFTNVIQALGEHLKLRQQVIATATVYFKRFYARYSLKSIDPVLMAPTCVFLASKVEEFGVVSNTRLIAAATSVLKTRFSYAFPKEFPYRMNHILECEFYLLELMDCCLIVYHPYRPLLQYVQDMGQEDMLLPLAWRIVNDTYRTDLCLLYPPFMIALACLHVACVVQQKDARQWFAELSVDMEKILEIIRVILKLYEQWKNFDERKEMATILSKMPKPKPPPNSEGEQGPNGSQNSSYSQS
Source text: (§1) A radiometric protein kinase assay (PanQinase® Activity Assay, ProQinase) was used for measuring activities of CDK8/CycC and CDK19/CycC protein kinases.

[17] = molecular target: CDK19/CycC (Homo sapiens, UniProt Q9BWU1); test: as above
Sequence of CDK19/CycC (Q9BWU1 whole entry): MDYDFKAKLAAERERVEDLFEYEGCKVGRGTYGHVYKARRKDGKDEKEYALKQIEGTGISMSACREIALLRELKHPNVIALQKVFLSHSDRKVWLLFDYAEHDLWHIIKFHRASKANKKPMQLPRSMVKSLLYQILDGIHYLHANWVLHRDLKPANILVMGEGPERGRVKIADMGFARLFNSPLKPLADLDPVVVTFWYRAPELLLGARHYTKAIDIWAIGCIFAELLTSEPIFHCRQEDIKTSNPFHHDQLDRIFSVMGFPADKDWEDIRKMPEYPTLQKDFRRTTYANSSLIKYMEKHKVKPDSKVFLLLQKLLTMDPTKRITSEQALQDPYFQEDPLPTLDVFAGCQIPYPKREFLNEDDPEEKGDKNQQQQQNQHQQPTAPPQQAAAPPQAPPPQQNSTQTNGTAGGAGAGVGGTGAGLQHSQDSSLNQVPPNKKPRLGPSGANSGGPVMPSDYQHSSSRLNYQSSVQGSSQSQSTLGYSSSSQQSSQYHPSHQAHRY
Sequence of CDK19/CycC (P24863 whole entry partner): as the sequence (P24863 whole entry partner) above
Source text: as §1

[18] = tested on: RNAP II CTD S2 and S5; test: RNAP II CTD phosphorylation in HCT-116 cells (WB); type: cell-based; conditions: SEL120-34A up to 2.5 μM
Method: 0,1% SDS; 20 mM β-glicerol phosphate; 5 mM NaF; cat. # sc835), α-STAT5-pS726 (1:1000; Abcam, cat. # 1 mM Na3VO4) supplemented with protease inhibitors ab128896), α-STAT5-pY694 (1:1000; Cell Signaling, (Santa Cruz Biotechnology). Tumor samples were cat. #C11C5), α-tubulin (1:4000; Sigma, cat. # T5192) homogenized in 15 sec intervals and kept on ice between and β-actin (1:4000, Sigma cat. # A2066) or GAPDH homogenization cycles. Protein concentration in lysates (1:20000; Sigma, cat. # G9545) was measured by the Bradford assay and adjusted to achieve the same final concentration in each well (20-30 mRNA extraction from xenograft tissue μg protein/well). […] A scoop Unless indicated otherwise, membranes were blocked of a tumor (~25mg) was homogenized with a pestle for 45 min with 2% fat-free dried milk (Rovema, Poland) under liquid nitrogen and immediately processed in Tris-buffered saline (TBS) + 0.05% Tween (TBST), according to the RNeasy Mini Kit protocol (Qiagen). incubated overnight at 4°C with primary antibodies diluted The RNA concentration was measured by a NanoDrop into 2% milk in TBST and washed four times for 10 min spectrophotometer and stored at -80°C for downstream with TBST. […]
with the activities of CDK9 in cells. […] Protein levels of RNAP II CTD pS2, pS5, cMYC and GAPDH were measured by WB.

[19] = tested on: MOLM-14 cell line; parameters: method as in PMID 26416749; conditions: previously identified; cited from earlier work

Structure (SMILES): N#CC[C@H](C1CCCC1)n1cc(-c2ncnc3[nH]ccc23)cn1 [Ruxolitinib, reference compound]
STAT5 S726 phosphorylation [1]: unaffected
STAT5 Y694 phosphorylation [1]: inhibition

GI50 [3]: 0.34 µM
GI50 [7]: 0.07 µM
GI50 [8]: 0.23 µM
GI50 [9]: 0.36 µM
GI50 [11]: 5 µM
GI50 [14]: 5 µM
IC50 [16]: 0.0173 µM
Structure (SMILES): CN1CCN(C(=O)c2ccc3cc(CCNc4ncnc5ccc(C#N)cc45)ccc3c2)CC1 [Senexin B, reference compound]
GI50 [2]: 0.17 µM
GI50 [4]: 0.27 µM
GI50 [5]: 0.15 µM
GI50 [6]: 0.96 µM
GI50 [10]: 5 µM
GI50 [12]: 2.6 µM
GI50 [13]: 5 µM
GI50 [15]: < 1 µM

IC50 [16]: 0.0042 µM
IC50 [17]: 0.0144 µM
Structure (SMILES): Cn1cc(-c2ccc(-c3cncc(Cl)c3N3CCC4(CCNC4=O)CC3)cc2)cn1 [CCT251545, reference compound]

Structure (SMILES): CN1CC[C@H](c2c(O)cc(O)c3c(=O)cc(-c4ccccc4Cl)oc23)[C@H](O)C1 [Flavopiridol, reference compound]
RNAP II CTD phosphorylation at S2 and S5 [18]: active

Structure (SMILES): CN(C)[C@H]1C[C@@]23CC[C@@]4(O2)C(=CC[C@]2(C)[C@@H](c5ccc6ccncc6c5)CC[C@H]24)C=C3[C@@H](O)[C@@H]1O [CA, Cortistatin A]
sensitivity of MOLM-14 cell line to treatment [19]: sensitive
